The nature of the data set: Water solubility / water-dispersing ability. The format is physicochemical. To be noted: dispersed in water, bottle A versus bottle B, visual.

As for `Oc1ccc(C=Cc2cc(O)cc(O)c2)cc1` [known 99% resveratrol, resveratrol], the “Water-dispersing ability (FIG. 1)” value is on record as “insoluble in water”.

For the origin of these results see patent publication US10882012B2, “Process for producing a nano resveratrol microemulsion system” (priority 2018, dated 2021).
